Source: patent publication US10939680B2, “Herbicidal composition” (priority 2014, dated 2021)

Key:
[1] = test system: rye-grass (Lolium multiflorum); test: Efficiency test of the herbicidal composition on rye-grass in oilseed rape fields; type: in vivo; details: for percentage of weeds eliminated, Trial ALS11H56-02 / percentage of weeds eliminated, Trial ALS11H56-04 / percentage of weeds eliminated, Trial ALS12H56-03: crop OSR; for percentage of weeds eliminated, Trial ALS11H56-02 / percentage of weeds eliminated, Trial ALS11H56-04: 53 DAA; for percentage of weeds eliminated, Trial ALS12H56-03: 58 DAA; for Maximum percentage of weeds eliminated: maximum of three OSR trials; for Maximum percentage of weeds eliminated / Minimum percentage of weeds eliminated: 53-58 DAA; for Minimum percentage of weeds eliminated: minimum of three OSR trials
From the text: This plant, also called […] or Italian rye-grass (Lolium multiflorum) is traditionally considered to be a pest.
The composition has been tested on different parcels of oilseed rape (OSR for Oilseed rape, Brassica napus).
Findings relating to damages caused by the different compounds that were trialed are set out in percentages of weeds eliminated from 0 to 100% with respect to a trialed lot in which no herbicidal treatment was applied. The number, 0, corresponds to no observed damage to weeds whereas the number, 100, corresponds to an elimination of the entirety of the weeds.
Further, a volume of 0.8 L of the aforementioned composition has been applied per hectare to the treated lot.
Quizalofop-p-ethyl and flauzifop-p-butyl belong to the aryloxyphenoxypropionate family. A volume of 1.2 L of quizalofop-p-ethyl per hectare and a volume of 1.5 L of flauzifop-p-butyl per hectare have respectively been applied.
The compositions—ALSNC10HCLQ01 0.8 and Q+C 1:1 (0.4-0.5 liters per hectare) and quizalofop-p-ethyl (1.2 liters per hectare) which were tested have been diluted, prior to their application, in 1 L of adjuvant oil (Actirob).
Different trials have been conducted in different fields where oilseed rape (OSR) is grown. The efficiency of different products and of the herbicidal composition referred to in the invention have been evaluated at different time intervals following the application of the said products to the crop in question (DAA means “days after application”). For example, the efficiency of products has been measured 53 and 58 days after application to the field of oilseed rape. These intervals following application of the composition are necessary and adequate to enable the ultimate efficiency of the trialed products to be judged.

[2] = test system: blackgrass (Alopecurus myosuroides); test: Efficiency test of the herbicidal composition on blackgrass in field crops; type: in vivo; details: for percentage of weeds eliminated, Trial No. ALS12H48 -05: 44 DAA; for percentage of weeds eliminated, Trial No. ALS11H56-01: 50 DAA; for Maximum percentage of weeds eliminated: maximum of the trials; for Maximum percentage of weeds eliminated / Minimum percentage of weeds eliminated: 44-50 DAA; for Minimum percentage of weeds eliminated: minimum of the trials
Experimental: Trials were also carried out to show the efficiency of the herbicidal composition referred to in the invention on a second weed called blackgrass. This plant is an annual plant and has traditionally been seen as a weed in cultivated fields.
The composition was tested on crops including crops of beetroot (Sugar beet, Beta vulgaris), oilseed rape (OSR, Brassica napus).
The same compounds that were used in Example 1 were evaluated for efficiency.
In the same manner as for Example 1, different trials were carried out in different fields, in each which a plant of interest was cultivated.
In this example, tests were carried out on two plots of oilseed rape, on the one hand, and in a lot of beetroot on the other hand.
The efficiency of different products and the herbicidal composition referred to in the invention have been evaluated at different intervals following the application (DAA) of the aforementioned products onto the crop in question.
For example, the efficiency of products has been measured at 44, 46 and 50 days following application of the products.

Compound	percentage of weeds eliminated, Trial ALS11H56-02 [1] [%]	percentage of weeds eliminated, Trial ALS11H56-04 [1] [%]	percentage of weeds eliminated, Trial ALS12H56-03 [1] [%]	Maximum percentage of weeds eliminated [1] [%]	Minimum percentage of weeds eliminated [1] [%]	percentage of weeds eliminated, Trial No. ALS12H48 -05 ([2]; crop OSR) [%]	percentage of weeds eliminated, Trial No. ALS11H56-01 ([2]; crop OSR) [%]	Maximum percentage of weeds eliminated [2] [%]	Minimum percentage of weeds eliminated [2] [%]	percentage of weeds eliminated, Trial No. ALS11H42-02 ([2]; crop OSR, 46 DAA) [%]
CCCCOC(=O)[C@@H](C)Oc1ccc(Oc2ccc(C(F)(F)F)cn2)cc1 [flauzifop-p-butyl]	3	66	46	66	3	52	76	76	52	–
CCOC(=O)[C@@H](C)Oc1ccc(Oc2cnc3cc(Cl)ccc3n2)cc1 [quizalofop-p-ethyl]	26	76	68	76	26	50	63	63	30	30
